Results: patent US9757368B2, “Anti-inflammatory agents” (Resverlogix Corp., priority 2009, dated 2017)

Legend:
hIL-6 mRNA = test: Quantification of hIL-6 mRNA in LPS-stimulated U937 macrophages (real-time PCR); type: cell-based, human; design: key: Active: an active compound is one that causes a ≧20% inhibition in IL-6 mRNA at a concentration less than or equal to 10 μM; details: U937 cells differentiated with PMA, 1 h pretreatment, LPS 1 μg/mL, 3 h; IL-6 mRNA normalised to hCyclophilin; compound ≤10 μM
Description: In this example, hIL-6 mRNA in tissue culture cells was quantitated to measure the transcriptional inhibition of hIL-6 when treated with a compound of the invention.
A human leukemic monocytic lymphoma cell line (U937) was plated (3.2×10^5 cells per well) in a 96-well plate in 100 μL RPMI 1640+10% FBS, and differentiated into macrophages with PMA (60 ng/mL) for 3 days prior to the addition of the compound of interest. The cells were pretreated for 1 h with the test compound in DMSO prior to stimulation with lipopolysaccharide from Escherichia coli at 1 μg/mL. The cells were incubated for 3 h before harvest. At the time of harvest, cells were rinsed in 200 μL PBS. Cell lysis solution (70 μL) was added the cells for 10 min, and mRNA was then prepared using the “mRNA Catcher PLUS plate” (Invitrogen), according to the protocol supplied.
(§1) The eluted mRNA isolated was then used in a one-step quantitative real-time PCR reaction, using components of the UltraSense kit together with Applied Biosystems primer-probe mixes. 10 μL of template was amplified with 1.75 μL of IL-6 primer-probe, and 1 μL of hCyclophilin primer probe, and the reaction was carried out in multiplex. Real-time PCR data was analyzed, normalizing the Ct values for hIL-6 to hCyclophilin, prior to determining the fold induction of each unknown sample, relative to the control.

hVCAM-1 mRNA = test: Quantification of hVCAM-1 mRNA in TNF-α-stimulated HUV-EC-C cells (real-time PCR); type: cell-based, human; design: key: Active: an active compound is one that causes a ≧20% inhibition in VCAM-1 mRNA at a concentration less than or equal to 10 μM; details: 1 h pretreatment, TNF-α 10 ng/mL, 24 h, VCAM-1 mRNA normalised to hCyclophilin, compound ≤10 μM
Description: In this example, hVCAM-1 mRNA in tissue culture cells was quantitated to measure the transcriptional inhibition of hVCAM when treated with a compound of the invention.
A human umbilical vein endothelial cell line (HUV-EC-C) was plated in a 96-well plate (5.0×10^3 cells/well) in 100 μL EGM complete media and incubated for 24 h prior to the addition of the compound of interest. The cells were pretreated for 1 h with the test compound in DMSO prior to stimulation with tumor necrosis factor-α (10 ng/mL). The cells were incubated for an additional 24 h before harvest. At time of harvest, the cells were rinsed in 200 μL PBS, and cell lysis solution (70 μL) was then added the cells for 10 min. mRNA was then prepared using the “mRNA Catcher PLUS plate” (Invitrogen), according to the protocol supplied.
as §1, with “mRNA” for “mRNA isolated”, “hVCAM-1” for “IL-6”, “hVCAM-1” for “hIL-6”

COc1cc(OC)c2c(=O)[nH]c(-c3cc(C)c(CNC(C)=O)c(C)c3)nc2n1 [Example 39, N-[4-(5,7-dimethoxy-4-oxo-3,4-dihydro-pyrido[2,3-d]pyrimidin-2-yl)-2,6-dimethyl-benzyl]-acetamide]
Inhibition of IL-6 expression (hIL-6 mRNA): Active | Inhibition of VCAM-1 expression (hVCAM-1 mRNA): Active

COc1cc(OC)c2c(=O)[nH]c(-c3cc(C)c(OCCNCC(F)(F)F)c(C)c3)nc2c1 [Example 40, 2-{3,5-dimethyl-4-[2-(2,2,2-trifluoro-ethylamino)-ethoxy]-phenyl}-5,7-dimethoxy-3H-quinazolin-4-one]
Inhibition of IL-6 expression (hIL-6 mRNA): Active | Inhibition of VCAM-1 expression (hVCAM-1 mRNA): Active

CNCCOc1c(C)cc(-c2nc3cc(OC)cc(OC)c3c(=O)[nH]2)cc1C [Example 42, 2-(3,5-dimethyl-4-(2-(methylamino)ethoxy)phenyl)-5,7-dimethoxyquinazolin-4(3H)-one]
Inhibition of IL-6 expression (hIL-6 mRNA): Active | Inhibition of VCAM-1 expression (hVCAM-1 mRNA): Active

COc1cc(OC)c2c(=O)[nH]c(-c3cc(C)c(OCCNC(C)C)c(C)c3)nc2c1 [Example 44, 2-(4-(2-(isopropylamino)ethoxy)-3,5-dimethylphenyl)-5,7-dimethoxyquinazolin-4(3H)-one]
Inhibition of IL-6 expression (hIL-6 mRNA): Active | Inhibition of VCAM-1 expression (hVCAM-1 mRNA): Active

COc1cc(OC)c2c(=O)[nH]c(-c3cc(C)c(OCCN(C)C(C)=O)c(C)c3)nc2c1 [Example 47, N-(2-(4-(5,7-dimethoxy-4-oxo-3,4-dihydroquinazolin-2-yl)-2,6-dimethylphenoxy)ethyl)-N-methylacetamide]
Inhibition of IL-6 expression (hIL-6 mRNA): Active | Inhibition of VCAM-1 expression (hVCAM-1 mRNA): Active

COc1cc(OC)c2c(=O)[nH]c(-c3cc(C)c(OCCNC#N)c(C)c3)nc2c1 [Example 51, N-(2-(4-(5,7-dimethoxy-4-oxo-3,4-dihydroquinazolin-2-yl)-2,6-dimethylphenoxy)ethyl)cyanamide]
Inhibition of IL-6 expression (hIL-6 mRNA): Active | Inhibition of VCAM-1 expression (hVCAM-1 mRNA): Active

COc1cc(OC)c2c(=O)[nH]c(-c3ccc4cc(CCO)[nH]c4c3)nc2c1 [Example 58, 2-[2-(2-hydroxyethyl)-1H-indol-6-yl]-5,7-dimethoxy-3H-quinazolin-4-one]
Inhibition of IL-6 expression (hIL-6 mRNA): Active | Inhibition of VCAM-1 expression (hVCAM-1 mRNA): Active
